These results are taken from PubChem BioAssay AID1324 (NMMLSC, 2008).

The EC50 is the concentration needed to bring the measured effect to its halfway point.

Activity calls are given as the source filed them. How the calls were made is not given here.

The target in the first test is glutathione S-transferase (GST-GSH binding). The test can be described thus: GST–glutathione interaction disruption – biochemical, multiplex beads, flow cytometry, HPSMTB buffer, profiling panel (AID 1324).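 Further: glutathione beads loaded with GST-green fluorescent protein and no fluorescent Bim peptide.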 Particulars: multiplex bead flow cytometry, MCF. For orientation: A flow cytometer gives signals particle by particle.
As to `Cc1ccnc(SCc2cc(=O)c(OC(=O)c3ccc(Cl)c([N+](=O)[O-])c3)co2)n1`, the EC50 result was “inactive”.

As to `CN(C)c1ncc(C2=C(Cl)C(=O)C(N3CCCC3)=C(Cl)C2=O)s1`, the EC50 was 8.83 µM.

The same test, now with this note: multiplex bead flow cytometry, MCF, hits give high values, concentration not given here.
On to `O=C(CSc1ccc2nnc(-c3ccncc3)n2n1)Nc1nccs1`, for which the percent span inhibition result is “inactive”.

`COc1cccc(N2CC(C(=O)Nc3nnc(SCC(=O)c4ccccc4)s3)CC2=O)c1` (stereo not given): the percent span inhibition result is “inactive”. Same read-out and setting: the same measure for `CCOC(=O)C1(Cc2cccc(OC)c2)CCN(Cc2cccc(OC)c2OC)CC1`: “inactive”; for `O=C(COC(=O)CCCN=C1NS(=O)(=O)c2ccccc21)NC(=O)NC1CCCC1`: “inactive”; for `Cc1cc(-c2nnc3n2N=C(c2ccc(-c4ccccc4)cc2)CS3)n[nH]1`: “inactive”. Take `COCCNC(=O)CN1CCC(NC(=O)Nc2ccccc2)CC1`: the percent span inhibition entry is “inactive”.

`CCN1/C(=C\c2ccc3cc(C)ccc3[n+]2CC)Sc2cc(C)c(C)cc21`: the percent span inhibition entry is “inactive”.

As to `Cc1ccc(-c2cc(-c3ccc(C)o3)nc(N)c2C#N)cc1`, the percent span inhibition result was “inactive”. `CCOC(=O)c1sc(N)c(C(=O)Nc2ccccc2OC)c1C`: the percent span inhibition result was “inactive”. For `CCC(=O)OCCNc1cc(Sc2nc3ccccc3s2)c2nonc2c1[N+](=O)[O-]`, the percent span inhibition result was “inactive”. With `Cc1ccc(-c2cc(-c3ccccc3)c(C#N)c(N)n2)o1`, the percent span inhibition entry was “inactive”. Same read-out and setting: the same measure for `Oc1ccc(C=NCC2COc3ccccc3O2)cc1` (stereo not given): “inactive”.

For `CC(C(=O)Nc1ccc([N+](=O)[O-])cc1)N1CCN(C/C=C/c2ccccc2)CC1` (stereo not given), the percent span inhibition result was “inactive”. With `CNC(=S)N(Cc1cccs1)Cc1cc2ccc(OC)cc2[nH]c1=O`, the percent span inhibition result is “inactive”. On the same count and under the same terms, then `CN(C)c1ccc(/C=C2/SC(=O)N(CCN=C3NS(=O)(=O)c4ccccc43)C2=O)cc1`, with “inactive”; and `CCc1nnc(NS(=O)(=O)c2ccc(N=CC3=C(O)CC(C)(C)CC3=O)cc2)s1`, with “inactive”; and `COC(=O)c1sc(NC(=O)c2ccc(Cn3cc(Cl)cn3)o2)c(C#N)c1C`, with “inactive”. Still for that read-out and setting: then `CSc1nnc2c3cc(C)ccc3n(Cc3ccccc3)c2n1`, with “inactive”.

Regarding `O=C(C1=NN[C@@H]2C(=O)N(c3ccccc3C(F)(F)F)C(=O)[C@H]12)c1ccc2ccccc2n1`, the percent span inhibition result is “inactive”.

With `O=C(COc1ccccc1Br)NCc1ccccn1`, the percent span inhibition result was “inactive”. On the same count and under the same terms, the same measure for `O=C(Nc1ccncc1)c1cc2ccccc2o1`: “inactive”. In the case of `O=c1nc2c(O)cccn2c2c1c(=O)[nH]c1ccccc12`, the percent span inhibition entry was “inactive”. Consider `CS(=O)(=O)NN1C(=O)c2ccccc2NC1c1cccc2cccnc12` (stereo not given), for which the percent span inhibition entry is “inactive”. Consider `CCNC(=S)Nc1ccc(OCC)cc1`, for which the percent span inhibition result is “inactive”. Regarding `O=C(O)c1ccc(NC2=C/C(=N/S(=O)(=O)c3ccccc3)c3ccccc3C2=O)cc1`, the percent span inhibition entry is “inactive”. Regarding `COc1ccc(OC)c(NC(=O)CCCN2C(=S)NC(C)(C)CC2C)c1` (stereo not given), the percent span inhibition entry is “inactive”. As to `Cc1ccccc1-n1c(SCc2cccc(F)c2)nc2[nH]ncc2c1=O`, the percent span inhibition entry was “inactive”. On the same count and under the same terms, the same measure for `COc1ccc(N2CCN(CCCNC(=O)CCCn3c(=O)[nH]c4ccsc4c3=O)CC2)cc1`: “inactive”; for `Nc1ccc(N2CCCCCC2)cc1`: “inactive”. Regarding `COc1ccc(Cl)cc1-n1c(C)cc(C=O)c1C`, the percent span inhibition result is “inactive”. The same measure, in the same setting: then `CC1Cc2ccccc2N1C(=O)c1ccc(N2CCCC2)c([N+](=O)[O-])c1` (stereo not given), with “inactive”; and `Cc1cccc(-n2c(O)c(/C=N/N3CCOCC3)c(=O)[nH]c2=S)c1`, with “inactive”. Still for that read-out and setting: the same measure for `Cc1cc(N2CCN(C)CC2)nc2ccc(NC(=S)N3CCCCC3)cc12`: “inactive”.
